# Reference: ChEMBL document CHEMBL1149727, “Sesquiterpenes from clove (Eugenia caryophyllata) as potential anticarcinogenic agents” (1992)
# How the values were obtained:
# [1] = test system: Mus musculus; assay: Ratio of drug to control in induction of cytosolic Glutathione S-transferase activity per mg of protein in A/J mouse small bowel mucosa at 20 mg, po for once every 2 days for total three doses measured after 24 hrs of last dose; assay type: functional
# [2] = test system: Mus musculus; assay: Ratio of drug to control in induction of cytosolic Glutathione S-transferase activity per mg of protein in A/J mouse liver at 20 mg, po for once every 2 days for total three doses measured after 24 hrs of last dose; assay type: functional
# [3] = test system: Mus musculus; assay: Induction of cytosolic Glutathione S-transferase activity per mg of protein in A/J mouse forestomach at 20 mg, po for once every 2 days for total three doses measured after 24 hrs of last dose; assay type: functional, Stomach
# [4] = test system: Mus musculus; assay: Induction of cytosolic Glutathione S-transferase activity per mg of protein in A/J mouse small bowel mucosa at 20 mg, po for once every 2 days for total three doses measured after 24 hrs of last dose; assay type: functional
# [5] = test system: Mus musculus; assay: Ratio of drug to control in induction of cytosolic Glutathione S-transferase activity per mg of protein in A/J mouse forestomach at 20 mg, po for once every 2 days for total three doses measured after 24 hrs of last dose; assay type: functional, Stomach
# [6] = test system: Mus musculus; assay: Induction of cytosolic Glutathione S-transferase activity per mg of protein in A/J mouse liver at 20 mg, po for once every 2 days for total three doses measured after 24 hrs of last dose; assay type: functional
Compound,Ratio [1],Ratio [2],Activity [3] [µmol/min],Activity [4] [µmol/min],Ratio [5],Activity [6] [µmol/min]
C=C1CC[C@@H]2O[C@]2(C)CC[C@@H]2[C@@H]1CC2(C)C,4.8,2.88,0.59,1.2,0.95,2.13
C/C1=C\CC[C@@]2(C)O[C@@H]2CC(C)(C)/C=C/C1,3.24,2.08,0.77,0.81,1.24,1.54
C/C1=C\CC/C(C)=C/CC(C)(C)/C=C/C1 [ALPHA-HUMULONE],2.52,1.99,0.63,0.63,1.02,1.47
C=C1CC/C=C(\C)CC[C@@H]2[C@@H]1CC2(C)C [BETA-CARYOPHYLLENE],3,2.59,0.77,0.75,1.24,1.92
C=CCc1ccc(O)c(OC)c1 [EUGENOL],2.36,1.26,0.75,0.59,1.21,0.93
